In patent US8859018B2, “Delivery carrier for antimicrobial essential oils” (Nestec S.A., priority 2010, dated 2014):

How the values were obtained:
[1] = Un-inoculated control samples of the challenge tests in MOS / MAS; settings: 0.10%
Protocol: (§1) Challenge Test with moulds was according to the following steps: 1) Add 100 g of MOS into a 250 ml sterile Schott bottle with screw-cap cover; 2) Add 0.1 to 2 ml of mould (A. niger/P. nalgiovence/E. amstelodami) inoculum to meet the target inoculum of 10^2-10^3 cfu/g of MOS into the 100 g MOS and shake to mix well; 3) Pour 35 g of the inoculated MOS into a petri dish. Perform this in duplicate; 4) Pipette 1 g of inoculated MOS from the Schott bottle into 9 ml sterile Tryptone Salt 0.1% diluents and vortex. Perform this in duplicate; 5) Plate 0.1-0.5 ml of inoculated Tryptone Salt 0.1% onto DG18 plates at appropriate dilutions by Spread Plate Method. Incubate the agar plates at 25° C. for 5 days to enumerate the initial mould count; 6) Incubate the inoculated MOS in petri dishes at 30° C. for a week. Monitor for mould growth by visual observation after one week. Perform this mould growth monitoring for a period of 4 weeks; 7) The control was prepared by repeating steps 3 to 6 without using any inoculum. The control was plated onto PCA with Cycloheximide plates.
Challenge Test with yeasts was according to the following steps: 1) Add 100 g of MOS into a 250 ml sterile Schott bottle with screw-cap cover; 2) Add 0.1 ml to 2 ml of yeast (Z. bailii) inoculum to meet the target inoculum of 10^2 to 10^3 cfu/g of MOS into the 100 g MOS and shake to mix well; 3) Pour 35 g of the inoculated MOS into two 150 ml sterile disposable polypropylene container with screw-cap cover; 4) Pipette 1 g of inoculated MOS into 9 ml sterile Tryptone Salt 0.1% diluent and vortex. Perform this in duplicate; 5) Plate 0.1 ml to 0.5 ml of inoculated Tryptone Salt 0.1% onto MEA at appropriate dilutions by Spread Plate Method. Incubate the plates at 30° C. for 3 days for the enumeration of the initial yeast count; 6) Incubate the inoculated MOS in 150 ml containers at 30° C. for a week; 7) After one week, repeat steps 4 to 6 for the weekly monitoring of Z. bailii growth behavior in MOS. Perform the monitoring for a period of 4 weeks; 8) The control was prepared by repeating steps 3 to 7 without using any inoculum.
(§2) The method for producing MAS was the same as for the MOS production in experiment 4. The preparation of the microorganism cultures as well as the challenge tests were identical to the ones described in experiment 4 as well.

[2] = system: Aspergillus niger (mould); assay: Challenge test with moulds in MOS / MAS; type: cell-based; settings: for Week 0 (Log cfu/g) / Week 1 (Log cfu/g) / Week 2 (Log cfu/g) / Week 3 (Log cfu/g) / Week 4 (Log cfu/g): 0.10%; for mould growth: KS 0.10%; as to Week 1 (Log cfu/g): key: VG: growth; NVG: no growth; as to Week 2 (Log cfu/g): key: VG: growth; NVG: no growth; as to Week 3 (Log cfu/g): key: VG: growth; NVG: no growth; as to Week 4 (Log cfu/g): key: VG: growth; NVG: no growth
Protocol: Target microorganisms used for the challenge tests (CT) were Zygosaccharomyces bailii (yeast), Aspergillus niger (mould), Penicillium nalgiovense (mould) and Eurotium amstelodami (mould).
Stock culture of the mould (mould spores suspended in Tryptone Salt 0.1% diluent) was revived on RBA plates by doing a 3-point inoculation. The inoculated RBA plates were incubated at 30° C. for 36 hours or until the colonies sporulated. The spores were then aseptically sub-cultured onto PDA plates for mass harvesting of the spores. The inoculated PDA plates were then incubated for 30° C. for 36 hours or until the colonies sporulated. Then, the spores were aseptically harvested with a sterile cotton swabs and suspended in sterile Tryptone Salt 0.1% diluent. The suspensions were analyzed for mould spore counts on DG18 plates as well as for microbial contamination on PCA with Cycloheximide by spread plating 0.1-0.5 ml of suspension onto the agar plates respectively. Before the challenge test is initiated, the suspension inoculated with the mould spores was diluted aseptically with sterile Tryptone Salt 0.1% to the desired level such that the inoculation level in the product would be 2-3 log of colony-forming-units (cfu) of moulds per gram of product.
as §1, §2

[3] = MAGGI Abalone Sauce, age 0 month
[4] = MAGGI Abalone Sauce, age 1 month
[5] = MAGGI Abalone Sauce, age 3 month
[6] = MAGGI Abalone Sauce, age 6 month
[7] = MAGGI Abalone Sauce, age 10 month
[8] = MAGGI Abalone Sauce, age 12 month
[9] = MAGGI Oyster Sauce, age 0 month

C/C=C/C=C/C(=O)[O-].[K+] [KS, potassium sorbate]
3.67 Log cfu/g: Week 0 (Log cfu/g) [2, 7]
<1.30 Log cfu/g: Week 1 (Log cfu/g) [1, 8] | Week 2 (Log cfu/g) [1, 8] | Week 3 (Log cfu/g) [1, 8] | Week 4 (Log cfu/g) [1, 8] | Week 0 (Log cfu/g) [1, 9] | Week 1 (Log cfu/g) [1, 9] | Week 2 (Log cfu/g) [1, 9] | Week 3 (Log cfu/g) [1, 9] | Week 4 (Log cfu/g) [1, 9]
1.9 Log cfu/g: Week 0 (Log cfu/g) [2, 3]
2.16 Log cfu/g: Week 0 (Log cfu/g) [2, 6]
NVG: Week 1 (Log cfu/g) [2, 3] | Week 2 (Log cfu/g) [2, 3] | Week 3 (Log cfu/g) [2, 3] | Week 4 (Log cfu/g) [2, 3] | Week 1 (Log cfu/g) [2, 4] | Week 2 (Log cfu/g) [2, 4] | Week 3 (Log cfu/g) [2, 4] | Week 4 (Log cfu/g) [2, 4] | Week 1 (Log cfu/g) [2, 5] | Week 2 (Log cfu/g) [2, 5] | Week 3 (Log cfu/g) [2, 5] | Week 4 (Log cfu/g) [2, 5] | Week 1 (Log cfu/g) [2, 6] | Week 2 (Log cfu/g) [2, 6] | Week 3 (Log cfu/g) [2, 6] | Week 4 (Log cfu/g) [2, 6] | Week 1 (Log cfu/g) [2, 7] | Week 2 (Log cfu/g) [2, 7] | Week 3 (Log cfu/g) [2, 7] | Week 4 (Log cfu/g) [2, 7] | Week 1 (Log cfu/g) [2, 8] | Week 2 (Log cfu/g) [2, 8] | Week 3 (Log cfu/g) [2, 8] | Week 4 (Log cfu/g) [2, 8] | Week 1 (Log cfu/g) [2, 9] | Week 2 (Log cfu/g) [2, 9] | Week 3 (Log cfu/g) [2, 9] | Week 4 (Log cfu/g) [2, 9]
3.114 Log cfu/g: Week 0 (Log cfu/g) [2, 9]
not detected: mould growth ([2]; MAGGI Abalone Sauce, up to 12 months, clove leaf oil 0.06 wt % and 0.15 wt %) | mould growth ([2]; MAGGI Oyster Sauce, garlic EO 0.06 wt % and 0.12 wt %)
2.19 Log cfu/g: Week 0 (Log cfu/g) [2, 5]
1.15 Log cfu/g: Week 0 (Log cfu/g) [2, 4]
2.96 Log cfu/g: Week 0 (Log cfu/g) [2, 8]
<1.00 Log cfu/g: Week 0 (Log cfu/g) [1, 3] | Week 1 (Log cfu/g) [1, 3] | Week 2 (Log cfu/g) [1, 3] | Week 3 (Log cfu/g) [1, 3] | Week 4 (Log cfu/g) [1, 3] | Week 0 (Log cfu/g) [1, 4] | Week 1 (Log cfu/g) [1, 4] | Week 2 (Log cfu/g) [1, 4] | Week 3 (Log cfu/g) [1, 4] | Week 4 (Log cfu/g) [1, 4] | Week 0 (Log cfu/g) [1, 5] | Week 1 (Log cfu/g) [1, 5] | Week 2 (Log cfu/g) [1, 5] | Week 3 (Log cfu/g) [1, 5] | Week 4 (Log cfu/g) [1, 5] | Week 0 (Log cfu/g) [1, 6] | Week 1 (Log cfu/g) [1, 6] | Week 2 (Log cfu/g) [1, 6] | Week 3 (Log cfu/g) [1, 6] | Week 4 (Log cfu/g) [1, 6] | Week 0 (Log cfu/g) [1, 7] | Week 1 (Log cfu/g) [1, 7] | Week 2 (Log cfu/g) [1, 7] | Week 3 (Log cfu/g) [1, 7] | Week 4 (Log cfu/g) [1, 7] | Week 0 (Log cfu/g) [1, 8]
